Laboratory results reported in patent US20080031866A1, “METHOD FOR MODULATING THE PHARMACOKINETICS AND METABOLISM OF A THERAPEUTIC AGENT” (priority 2006, published 2008).

What was measured:
[1] = Intraduodenal dosing with and without β-glucuronidase, catheterized rat; type: in vivo; settings: 10 mg/kg, rats N=6; for AUC / Cmax / concentration at 0 h / concentration at 0.25 h / concentration at 0.5 h / concentration at 1 h / concentration at 2 h / concentration at 3 h / concentration at 4 h / concentration at 5 h / concentration at 6 h: male, Sprague Dawley, rat, plasma; for AUC: read-out: AUC average ± standard deviation 0 to 6 hours; for Cmax: read-out: Cmax average ± standard deviation; for concentration at 0 h / concentration at 0.25 h / concentration at 0.5 h / concentration at 1 h / concentration at 2 h / concentration at 3 h / concentration at 4 h / concentration at 5 h / concentration at 6 h: other: intraduodenal
Experimental: (§1) A catheterized rat model was used in which the agent alone or agent and β-glucuronidase enzyme was administered intraduodenally or intracolonically. The intraduodenal and intracolonic dosing was intended to prevent the potential for loss of enzymatic activity when orally dosing the β-glucuronidase (e.g. by degradation in the stomach). […]
(§2) For the oral gavage dosing, Compound 1 was prepared in neat PEG-400. For the intraduodenal and intracolonic dosing solutions, Compound 1 was added to neat Tween 80, the mixture was sonicated for thirty minutes at 45° C. until Compound 1 was completely dissolved and then deionized (DI) water was added to form a solution consisting of 20% Tween 80 and 80% DI water by weight.
(§3) For the oral enzyme solutions, β-glucuronidase was added to the final formulation at a concentration of 57,600 units/ml.
(§4) For the intraduodenal and intracolonic dosing, male Sprague Dawley rats weighing 300-400 g were purchased from Charles River Labs. All rat experiments were conducted under approved animal protocols. The rats were catheterized at Charles River Labs and had one or more of the following chronic catheters for dosing and sampling: jugular/carotid, duodenal, and colonic. Rats were limited to only one GI catheter and one vascular catheter. For IV dosing, rats were purchased with jugular and carotid catheters for dosing in the jugular catheter and blood sampling through the carotid catheter. For intraduodenal/intracolonic dosing, rats had one of the GI catheters for dosing and a carotid catheter for blood sampling.
(§5) The surgeries were done two weeks prior to start of testing. Rats were fed 4 hours post dose administration. All rats were dosed without anesthesia and sacrificed at the end of the study.
(§6) A quantitative method for determining the amount of (6,7-dimethoxy-2,4-dihydro-indeno[1,2-c]pyrazol-3-yl)-(3-fluoro-phenyl)-amine Compound 1 and its major metabolites, glucuronide A (Cpd 1-GluA) and glucuronide B (Cpd 1-GluB) (see Scheme A) in rat plasma was developed using phenacetin as an internal standard. [drawing 1]
(§7) The two glucuronide conjugates were prepared and purified to permit accurate quantification of the levels of intact parent Compound 1 versus Cpd 1-GluA and Cpd 1-GluB. Each standard curve for Compound 1, Cpd 1-GluA, and Cpd 1-GluB generated from rat plasma included ten concentration levels. […] The quantitative procedure for each sample included: sample preparation, HPLC separation and mass spectrometry detection.
(§8) The rat plasma was prepared using protein precipitation techniques. Reference standards and quality control samples in rat plasma for Compound 1 were transferred to a 96 deep-well plate. The precipitation solution contained 100 ng/ml of internal standard in acetonitrile. 300 μl of precipitation solution were added to 100 μl of each standard, quality control and plasma sample. Samples were vortexed for 10 mins, then centrifuged at 4500 RPM for 10 mins. 10 μl of each sample were injected for LC/MS/MS analysis.
(§9) The HPLC column chosen for the bioanalysis was purchased from Thermo Electron (Hypersil BetaBasic C18, 5 cm×2.1 mm). The eluting solvents were composed of Solvent A: 0.1% formic acid in H2O and Solvent B: 0.1% formic acid in acetonitrile. A step gradient was used and flow rate was 300 μl/min. The total run time was 3.2 mins. Solvent B was increased from 35% at 0 min to 75% at 2.1 mins and decreased back to 35% at 2.2 mins. The retention times for Compound 1, phenacetin, Cpd 1-GluA and Cpd 1-GluB were 1.1 min, 0.9 min, 1.3 min, and 1.6 min, respectively.
(§10) API3000 with a Turbo Ionspray interface from Applied Biosystems was used for the detection of Compound 1, the internal standard and major metabolites. Electrospray ionization was performed in the positive ion mode heated nebulizer with a temperature of 300° C. LC/MS/MS chromatograms were acquired in MRM (multiple reaction mode). […]

[2] = Intracolonic dosing with and without β-glucuronidase, catheterized rat; type: in vivo; settings: for AUC / Cmax / concentration at 0 h / concentration at 0.25 h / concentration at 0.5 h / concentration at 1 h / concentration at 2 h / concentration at 3 h / concentration at 4 h / concentration at 5 h / concentration at 6 h: male, Sprague Dawley, rat, plasma; for AUC / Cmax / concentration at 0 h / concentration at 0.25 h / concentration at 0.5 h / concentration at 1 h / concentration at 2 h / concentration at 3 h / concentration at 4 h / concentration at 5 h / concentration at 6 h / AUC average ± standard deviation 0 to 6 hours: 10 mg/kg, rats N=6; for AUC: read-out: AUC average ± standard deviation 0 to 6 hours; for Cmax: read-out: Cmax average ± standard deviation; for concentration at 0 h / concentration at 0.25 h / concentration at 0.5 h / concentration at 1 h / concentration at 2 h / concentration at 3 h / concentration at 4 h / concentration at 5 h / concentration at 6 h: other: intracolonic
Experimental: as §1, §2, §3, §4, §5, §6, §7, §8, §9, §10

[3] = Compound 1 10 mg/kg intraduodenal with β-glucuronidase
[4] = Compound 1 10 mg/kg intraduodenal without enzyme
[5] = Compound 1 10 mg/kg intracolonic with β-glucuronidase
[6] = Compound 1 10 mg/kg intracolonic without enzyme

## COc1cc2c(cc1OC)-c1n[nH]c(N(c3cccc(F)c3)[C@H]3O[C@@H](C(=O)O)[C@H](O)[C@@H](O)[C@@H]3O)c1C2 [Cpd 1-GluA]
[1]; [3]
  AUC: 8940 ± 2140 ng·h/mL
  Cmax: 6450 ng/mL
  concentration at 0 h: 0 ng/mL
  concentration at 0.25 h: 6450 ng/mL
  concentration at 0.5 h: 4820 ng/mL
  concentration at 1 h: 3860 ng/mL
  concentration at 2 h: 812 ± 426 ng/mL
  concentration at 3 h: 462 ± 208 ng/mL
  concentration at 4 h: 480 ± 107 ng/mL
  concentration at 5 h: 420 ± 74.1 ng/mL
  concentration at 6 h: 462 ± 113 ng/mL
  AUC average ± standard deviation 0 to 6 hours: 8,723.2 ± 2,132.6 ng · hr/ml
[1]; [4]
  AUC: 1220 ± 371 ng·h/mL
  Cmax: 717 ± 171 ng/mL
  concentration at 0 h: 0 ng/mL
  concentration at 0.25 h: 666 ± 198 ng/mL
  concentration at 0.5 h: 687 ± 178 ng/mL
  concentration at 1 h: 463 ± 164 ng/mL
  concentration at 2 h: 118 ± 36.3 ng/mL
  concentration at 3 h: 66.6 ± 42 ng/mL
  concentration at 4 h: 88.2 ± 53.9 ng/mL
  concentration at 5 h: 83.1 ± 23.2 ng/mL
  concentration at 6 h: 90.2 ± 28.1 ng/mL
  AUC average ± standard deviation 0 to 6 hours: 1,172.7 ± 361.2 ng · hr/ml
[2]; [5]
  AUC: 1770 ng·h/mL
  Cmax: 755 ± 509 ng/mL
  concentration at 0 h: 0 ng/mL
  concentration at 0.25 h: 6450 ng/mL
  concentration at 0.5 h: 4820 ng/mL
  concentration at 1 h: 3860 ng/mL
  concentration at 2 h: 812 ± 426 ng/mL
  concentration at 3 h: 462 ± 208 ng/mL
  concentration at 4 h: 480 ± 107 ng/mL
  concentration at 5 h: 420 ± 74.1 ng/mL
  concentration at 6 h: 462 ± 113 ng/mL
  AUC average ± standard deviation 0 to 6 hours: 1,767.6 ± 1,282.3 ng · hr/ml
[2]; [6]
  AUC: 5060 ng·h/mL
  Cmax: 1550 ± 1050 ng/mL
  concentration at 0 h: 0 ng/mL
  concentration at 0.25 h: 666 ± 198 ng/mL
  concentration at 0.5 h: 6450 ng/mL
  concentration at 1 h: 4820 ng/mL
  concentration at 2 h: 3860 ng/mL
  concentration at 3 h: 66.6 ± 42 ng/mL
  concentration at 4 h: 88.2 ± 53.9 ng/mL
  concentration at 5 h: 83.1 ± 23.2 ng/mL
  concentration at 6 h: 90.2 ± 28.1 ng/mL
  AUC average ± standard deviation 0 to 6 hours: 5061.9 ± 1,656.0 ng · hr/ml
[2]; no enzyme present
  AUC intracolonic relative to intraduodenal: 4.3 times
